Reference: patent US9192577B2, “Pharmaceutical compositions comprising a basic drug compound, a surfactant, and a physiologically tolerable water soluble acid” (Janssen Pharmaceutica NV, priority 2002, dated 2015)
Read-outs that look alike come from different tables or passages of the source.

Columns and labels:
mock-infected MT-4 cells = assay: cytotoxicity (CC50) in mock-infected MT-4 cells (MTT); type: cell-based
Method: (§1) A rapid, sensitive and automated assay procedure was used for the in vitro evaluation of anti-HIV agents. […] Inhibition of the HIV-induced cytopathic effect was used as the end point. The viability of both HIV- and mock-infected cells was assessed spectrophotometrically via the in situ reduction of 3-(4,5-dimethylthiazol-2-yl)-2,5-diphenyltetrazolium bromide (MTT). The 50% cytotoxic concentration (CC50 in M) was defined as the concentration of compound that reduced the absorbance of the mock-infected control sample by 50%. The percent protection achieved by the compound in HIV-infected cells was calculated by the following formula:
(§2) [formula] whereby (ODT)HIV is the optical density measured with a given concentration of the test compound in HIV-infected cells; (ODC)HIV is the optical density measured for the control untreated HIV-infected cells; (ODC)MOCK is the optical density measured for the control untreated mock-infected cells; all optical density values were determined at 540 nm. The dose achieving 50% protection according to the above formula was defined as the 50% inhibitory concentration (IC50 in M). The ratio of CC50 to IC50 was defined as the selectivity index (SI).

HIV = assay: in vitro anti-HIV assay: inhibition of HIV-induced cytopathic effect in MT-4 cells (MTT); type: cell-based; conditions: for pSI: pSI = pCC50-pIC50 (selectivity index CC50/IC50); for pIC50 (M): −log IC50
Method: as §1, §2

[1] = 50% protection against HIV-induced cytopathic effect in MT-4 cells, MTT

Structure (SMILES)	pCC50 (M) (mock-infected MT-4 cells)	pSI (HIV)	pIC50 (M) (HIV; [1])	pCC50 (M) (mock-infected MT-4 cells; −log CC50, mock-infected MT-4 cells, MTT)	IC50 (HIV; Human immunodeficiency virus 1, MT4, −log IC50, 50% protection against HIV-induced cytopathic effect in MT-4 cells, MTT)
Cc1cc(C=C(C#N)CC#N)cc(C)c1Nc1ccnc(Nc2ccc(C#N)cc2)n1 (mixture of isomers) [Compound 147]	5.7 M	−3.7	9.4 M		
Cc1cc(/C=C/C#N)cc(C)c1Nc1ccnc(Nc2ccc(C#N)cc2)n1 [Compound 1, 4-[[4-[[4-(2-cyanoethenyl)-2,6-dimethylphenyl]amino]-2-pyrimidinyl]amino]benzonitrile]		−4.4			
Cc1cc(/C=C/C#N)cc(C)c1Nc1ccnc(Nc2ccc(C#N)cc2)n1 [Compound 10]		−2.9		6.3 M	0.631 nM
Cc1cc(C=CC#N)cc(C)c1Oc1ccnc(Nc2ccc(C#N)cc2)n1 [Compound 25]		−5	9 M		
CC(=NO)c1cc(C)c(Nc2ccnc(Nc3ccc(C#N)cc3)n2)c(C)c1 [Compound 45]	5.0 M	−3.8	8.7 M		
Cc1cc(CN(C)CCC#N)cc(C)c1Nc1ccnc(Nc2ccc(C#N)cc2)n1 [Compound 75]	5.0 M	−4.0	9.0 M		
C/C(=C\C#N)c1cc(C)c(Nc2ccnc(Nc3ccc(C#N)cc3)n2)c(C)c1 [Compound 84]	4.5 M	−4.5	9.0 M		
Cc1cc(/C=C/C#N)cc(Cl)c1Nc1ccnc(Nc2ccc(C#N)cc2)n1 [Compound 133]	4 M	−5.2	9.2 M		
Cc1cc(CC(C#N)C#N)cc(C)c1Nc1ccnc(Nc2ccc(C#N)cc2)n1 [Compound 144]	6.4 M	−2.2	8.6 M		
Cc1cc(/C=C/c2cccnc2)cc(C)c1Nc1ccnc(Nc2ccc(C#N)cc2)n1 [Compound 146]		−3			
CC/C(=C\C#N)c1cc(C)c(Nc2ccnc(Nc3ccc(C#N)cc3)n2)c(C)c1 [Compound 148]	4.9 M	−3.9	8.8 M		
Cc1cc(/C(=C/C#N)C(C)C)cc(C)c1Nc1ccnc(Nc2ccc(C#N)cc2)n1 [Compound 149]	5.3 M	−3.8	9.1 M		
Cc1cc(/C(=C\C#N)C(C)C)cc(C)c1Nc1ccnc(Nc2ccc(C#N)cc2)n1 [Compound 150]	4.8 M	−4.0	8.8 M		
CC(C#N)=Cc1cc(C)c(Nc2ccnc(Nc3ccc(C#N)cc3)n2)c(C)c1 [Compound 151]	5.5 M	−3.6	9.1 M		
CC(C#N)=Cc1cc(C)c(Nc2ccnc(Nc3ccc(C#N)cc3)n2)c(C)c1 [Compound 152]	4.8 M	−4.3	9.1 M		
Cc1cc(CC(C)C#N)cc(C)c1Nc1ccnc(Nc2ccc(C#N)cc2)n1 (stereo not shown) [Compound 153]	6.3 M	−2.9	9.2 M		
CCN(C)C(=O)/C=C/c1cc(C)c(Nc2ccnc(Nc3ccc(C#N)cc3)n2)c(C)c1 [Compound 158]	5.5 M	−2.5	8 M		

Structure (SMILES)	pCC50 (M) (mock-infected MT-4 cells)	pSI (HIV)	pIC50 (M) (HIV; [1])	pCC50 (M) (mock-infected MT-4 cells; −log CC50, mock-infected MT-4 cells, MTT)	IC50 (HIV; Human immunodeficiency virus 1, MT4, −log IC50, 50% protection against HIV-induced cytopathic effect in MT-4 cells, MTT)
Cc1cc(CN(C)C=NC#N)cc(C)c1Oc1ccnc(Nc2ccc(C#N)cc2)n1 [Compound 174]	5.3 M	−3.5	8.8 M		
Cc1cc(/C=C\Br)cc(C)c1Oc1ccnc(Nc2ccc(C#N)cc2)n1 [Compound 177]	<4.0 M	<−4.3	8.3 M		
CC(C#N)=Cc1cc(C)c(Oc2ccnc(Nc3ccc(C#N)cc3)n2)c(C)c1 [Compound 178]	5.7 M	−3.1	8.8 M		
CC(C#N)=Cc1cc(C)c(Oc2ccnc(Nc3ccc(C#N)cc3)n2)c(C)c1 [Compound 179]	<4.0 M	<−4.9	8.9 M		
Cc1cc(/C=C/C(=O)N(C)CC#N)cc(C)c1Oc1ccnc(Nc2ccc(C#N)cc2)n1 [Compound 212]	5 M	−4.1	9.1 M		
C/C(=C\C#N)c1cc(C)c(Oc2ccnc(Nc3ccc(C#N)cc3)n2)c(C)c1 [Compound 213]	4.8 M	−4.2	9 M		
Cc1cc(/C=C/C(=O)N(C)CCC#N)cc(C)c1Oc1ccnc(Nc2ccc(C#N)cc2)n1 [Compound 214]	5.1 M	−3.5	8.6 M		
CCN(C)C(=O)/C=C/c1cc(C)c(Oc2ccnc(Nc3ccc(C#N)cc3)n2)c(C)c1 [Compound 215]	5.5 M	−3.6	9.1 M		
Cc1cc(/C=C/C(=O)N(C)C)cc(C)c1Oc1ccnc(Nc2ccc(C#N)cc2)n1 [Compound 219]	5 M	−4.1	9.1 M		
Cc1cc(CCC#N)ccc1Nc1ccnc(Nc2ccc(C#N)cc2)n1 [Compound 227]	<4.0 M	<−5.5	9.5 M		
CC(C#N)=Cc1ccc(Nc2ccnc(Nc3ccc(C#N)cc3)n2)c(C)c1 [Compound 229]	<4.0 M	<−4.8	8.8 M		
Cc1cc(/C=C/C#N)ccc1Oc1ccnc(Nc2ccc(C#N)cc2)n1 [Compound 230]	<4.0 M	<−5.2	9.2 M		
CC(C#N)=Cc1ccc(Oc2ccnc(Nc3ccc(C#N)cc3)n2)c(C)c1 [Compound 231]	<4.0 M	<−5.2	9.2 M		
C/C(=C\C#N)c1ccc(Oc2ccnc(Nc3ccc(C#N)cc3)n2)c(C)c1 [Compound 232]	<4.0 M	<−4.4	8.4 M		
CC(C#N)=Cc1cc(C)c(Nc2ccnc(Nc3ccc(C#N)cc3)n2)c(Cl)c1 [Compound 233]	5.7 M	−3.6	9.3 M		
Cc1cc(CCC#N)ccc1Oc1ccnc(Nc2ccc(C#N)cc2)n1 [Compound 234]	<4.0 M	<−4.7	8.7 M		
